For orientation: EC50 means the concentration at which the effect is half-maximal. By CC50 is commonly meant the concentration giving 50% cytotoxicity.

Consider 9 molecules from ChEMBL document CHEMBL6182859, “Synthesis of Thioloformate-Containing Lathyrane Diterpene Derivates via a [3,3] Sigmatropic Rearrangement and Their Anti-HIV Activity” (J Nat Prod, 2025).

Series [1] deals with Human immunodeficiency virus 1. Put plainly: Anti-HIV activity against HIV-1 NL 4.3 infected in human MT4 cells assessed as inhibition of virus-induced cytopathicity measured after 4 days by CellTiter 96 Aqueous One Solution Cell Proliferation Assay. It counts as functional, organism-based. Particulars: Human immunodeficiency virus 1, NL 4.3, MT4, 96 h.
Series [2] has as its system Human immunodeficiency virus 2. Put plainly: Anti-HIV activity against HIV-2 ROD infected in human MT4 cells assessed as inhibition of virus-induced cytopathicity measured after 4 days by CellTiter 96 Aqueous One Solution Cell Proliferation Assay. Conditions: Human immunodeficiency virus 2, ROD, MT4, 96 h. It counts as functional, organism-based. On the technique in general: Protection from cytopathic effect is a common read-out in antiviral testing.

A short description of series [3]: Cytotoxicity against human MT4 cells assessed as reduction in cell viability measured after 4 days by CellTiter 96 Aqueous One Solution Cell Proliferation Assay. The series is classed as toxicity, cell-based. Conditions: time 4 day.
A short description of series [4]: Selectivity index, ratio of CC50 for cytotoxicity against human MT4 cells to EC50 for antiviral activity against HIV-2 ROD infected in human MT4 cells. The series is classed as toxicity, cell-based. Conditions: read-out: Ratio CC50/EC50.
Series [5] can be described thus: Selectivity index, ratio of CC50 for cytotoxicity against human MT4 cells to EC50 for antiviral activity against HIV-1 NL 4.3 infected in human MT4 cells. It counts as toxicity, cell-based. Conditions: read-out: Ratio CC50/EC50.

`C/C1=C\[C@@H]2[C@H](CC/C(CSC(=O)Oc3ccc(F)cc3)=C\C3[C@@H](O)[C@@H](C)C[C@]3(O)C1=O)C2(C)C` (some centres undefined): the EC50 in series [1] and in series [2] was > 45.2 µM throughout. In series [3], the CC50 at 96 h was found to be 45.2 µM.

`C/C1=C\[C@@H]2[C@H](CC/C(CSC(=O)Oc3ccccc3Br)=C\C3[C@@H](O)[C@@H](C)C[C@]3(O)C1=O)C2(C)C` (some centres undefined): the EC50 in series [1] and in series [2] was > 45.2 µM throughout. Further, the CC50 at 96 h in series [3] came to 45.2 µM.

On to `COc1ccc(OC(=O)SC/C2=C/C3[C@@H](O)[C@@H](C)C[C@]3(O)C(=O)/C(C)=C/[C@@H]3[C@H](CC2)C3(C)C)cc1` (some centres undefined), for which the EC50 in series [1] and in series [2] was > 47.4 µM in each case. The CC50 at 96 h in series [3] came out at 47.4 µM.

Take `C/C1=C\[C@@H]2[C@H](CC/C(CSC(=O)Oc3cc(F)cc(F)c3)=C\C3[C@@H](O)[C@@H](C)C[C@]3(O)C1=O)C2(C)C` (some centres undefined): the EC50 in series [1] and in series [2] was > 45 µM in each case. Besides, in series [3], the CC50 at 96 h was determined as 45 µM.

With `C/C1=C\[C@@H]2[C@H](CC/C(CSC(=O)Oc3ccc(Cl)cc3)=C\C3[C@@H](O)[C@@H](C)C[C@]3(O)C1=O)C2(C)C` (some centres undefined), the EC50 in series [1] and in series [2] was > 45.4 µM in each case. In addition, the CC50 at 96 h in series [3] turned out to be 45.4 µM.

As for `C/C1=C\[C@@H]2[C@H](CC/C(CSC(=O)Oc3ccccc3)=C\C3[C@@H](O)[C@@H](C)C[C@]3(O)C1=O)C2(C)C` (some centres undefined), the EC50 was > 13.1 µM in series [1] and 13.1 µM in series [2]. Also, the half-maximal cytotoxic concentration (CC50) at 96 h in series [3] was 13.1 µM.

Take `C/C1=C\[C@@H]2[C@H](CC/C(CSC(=O)Oc3ccc(C)cc3)=C\C3[C@@H](O)[C@@H](C)C[C@]3(O)C1=O)C2(C)C` (some centres undefined): the EC50 came out at 11.3 µM in series [1] and 6.6 µM in series [2]. Also, the selectivity ratio is > 6.8 in series [4] and > 4 in series [5]. The CC50 at 96 h in series [3] came out at 45.1 µM.

Turning to `C=C1CC[C@H]2[C@@H](/C=C(\C)C(=O)[C@@]3(OC(C)=O)C[C@H](C)[C@H](OC(=O)c4ccccc4)C3[C@H]1OC(C)=O)C2(C)C` (some centres undefined), the EC50 in series [1] and in series [2] was > 100 µM throughout. Also, the CC50 at 96 h in series [3] was > 100 µM.

Take `C/C1=C\[C@@H]2[C@H](CC/C(CSC(=O)Oc3c(C)cccc3C)=C\C3[C@@H](O)[C@@H](C)C[C@]3(O)C1=O)C2(C)C` (some centres undefined): the EC50 in series [1] and in series [2] was > 100 µM throughout. Besides, in series [3], the CC50 at 96 h was > 100 µM.
